Results from US7915276B2, “Berberrubine derivatives having antifungal activities” (priority 2006, dated 2011).

Assays:
[1] = target: T1, chitin synthase 2 of Saccharomyces cerevisiae ECY38-38A(pAS6) (Saccharomyces cerevisiae, UniProt P14180); test: In vitro enzyme assay for chitin synthase 2 of Saccharomyces cerevisiae (enzyme 2); type: biochemical; details: relative to polyoxin D (50% inhibitory activity = value 5)
T1 construct: made in house; host or cells: Saccharomyces cerevisiae ECY38-38A (chs1-23 chs2::LEU2 cal1/csd2) carrying plasmid pAS6, grown in galactose medium; 130,000 x g membrane pellet
Method: Crude enzyme was prepared using the recombinant Saccharomyces cerevisiae ECY38-38A(pAS6) (MATa chs1-23 chs2::LEU2 cal 1/csd 2 ura 3-52 trp 1-1 leu 2-2 pAS6) strain, which can produce the chitin synthase 2 only. The strain was inoculated with the YPG culture medium (1% yeast extract, 2% peptone, 2% galactose) and cultured at 30° C. overnight. Then, it was inoculated with a fresh YPG culture medium and cultured for 15-17 hours until the Absorbance at 550 nm reaches 1.0. The cells were collected and suspended in 50 mM Tris-HCl (pH 7.5) buffer containing 5 mM magnesium acetate. After centrifugation at 8,000×g for 10 minutes, the pellets were suspended in the same Tris-HCl buffer solution. The suspension was divided into aliquots in 50 mL conical test tubes. After adding the glass beads, the cells were disrupted by vigorously vortexing with an interval of 30 seconds. The cell residues were removed by centrifuging at 3,000×g for 5 minutes. The supernatant was ultra-centrifuged at 130,000×g for 1 hour. The resultant pellets were collected and suspended in 50 mM Tris-HCl (pH 7.5) containing 33% glycerol, to a final volume of 1.6 mg/g (wet weight) of yeast used. The suspension was divided into aliquots and kept at −70° C. until it is used.
(§1) The inhibitory activities against the chitin synthase 1 of Candida albicans chs2 Δ chs 3 Δ (abbreviated as ‘enzyme 1’) and the chitin synthase 2 of Saccharomyces cerevisiae ECY38-38A(pAS6)(abbreviated as ‘enzyme 2’) was examined for compound Nos. 1 to 70 compound and polyoxin D, a positive control compound.
(§2) The inhibitory activity against the chitin synthase 1 prepared from Candida albicans and the chitin synthase 2 prepared from Saccharomyces cerevisiae were examined as follows. A reaction mixture containing 32 mM Tris-HCl (pH 7.5), 2 mM cobalt acetate, 1.1 mM UDP-[U-^14C]-N-acetyl-d-glucosamine (GlcNAc) (400,000 cpm/μmol), 2 μL of trypsin (0.75 mg/mL), 20 μL of each crude enzyme and 14 μL of each test sample was kept at 30° C. for 15 minutes to activate the enzyme. Then, 2 μL of trypsin inhibitor (1.5 mg/mL) was added and the mixture was kept in an ice bath for 10 minutes to deactivate trypsin. 2 μL of 0.8 M N-acetyl-d-glucosamine was added to a total volume of 50 μL and reaction was performed at 30° C. for 90 minutes. The reaction was stopped using 1 mL of 10% TCA solution and the reaction solution was filtered with a GF/C filter and dried at room temperature. After adding 3 mL of a scintillation cocktail solution, the amount of isotopes was measured using a liquid scintillation counter. Percentage inhibition against each enzyme was calculated by the following Equation 1.
(§3) The control group was not added with a test sample in the reaction mixture and that of the untreated group contained neither the test sample nor the crude enzyme.
(§4) A 50% inhibitory activity of polyoxin D against the enzyme was given the value 5. A compound having the same inhibitory activity as that of polyoxin D at the same concentration was given the value 5. Compounds having the inhibitory activity at 2-fold, 4-fold, 8-fold and 16-fold higher concentrations than that of polyoxin D were given the values of 4, 3, 2 and 1, respectively. On the other hand, compounds having the inhibitory activity at ½, ¼ and ⅛ lower concentrations than that of polyoxin D were given the values of 6, 7 and 8, respectively.

[2] = target: T2, chitin synthase 1 of Candida albicans chs2 Δ chs 3 Δ (Candida albicans, UniProt P23316); test: In vitro enzyme assay for chitin synthase 1 of Candida albicans (enzyme 1); type: biochemical; details: relative to polyoxin D (50% inhibitory activity = value 5)
T2 construct: Crude enzyme was prepared using the Candida albicans chs2 Δ chs 3 Δ mutant; endogenous in cells; host or cells: Candida albicans chs2Δ/chs2Δ chs3Δ/chs3Δ mutant; 130,000 x g membrane pellet
Method: Crude enzyme was prepared using the Candida albicans chs2 Δ chs 3 Δ mutant (chs2 Δ::hisG/chs2 Δ::hisG chs3 Δ::hisG/chs3 Δ::hisG) strain, which can only produce the chitin synthase 1. The strain was inoculated with the SDA (Sabouraud dextrose agar) culture medium (4% dextrose, 1% peptone, pH 5.6) and cultured at 30° C. for 15-17 hours until the absorbance at 550nm reaches 0.7. The cells were collected and suspended in a 50 mM Tris-HCl (pH 7.5) buffer solution containing 5 mM magnesium acetate. After centrifugation at 8,000×g for 10 minutes, the pellets were suspended in the same Tris-HCl buffer solution. The suspension was divided into aliquots in 50 mL conical test tubes. After adding glass beads, the cells were disrupted by vigorously vortexing with an interval of 30 seconds. The cell residues were removed by centrifuging at 3,000×g for 5 minutes. The supernatant was ultra-centrifuged at 130,000×g for 1 hour. The resultant pellets were collected and suspended in 50 mM Tris-HCl (pH 7.5) containing 33% glycerol, to a final volume of 1.6 mg/g (wet weight) of yeast used. The suspension was divided into aliquots and kept at −70° C. until it is used.
as §1, §2, §3, §4

T1 sequence (P14180 whole entry): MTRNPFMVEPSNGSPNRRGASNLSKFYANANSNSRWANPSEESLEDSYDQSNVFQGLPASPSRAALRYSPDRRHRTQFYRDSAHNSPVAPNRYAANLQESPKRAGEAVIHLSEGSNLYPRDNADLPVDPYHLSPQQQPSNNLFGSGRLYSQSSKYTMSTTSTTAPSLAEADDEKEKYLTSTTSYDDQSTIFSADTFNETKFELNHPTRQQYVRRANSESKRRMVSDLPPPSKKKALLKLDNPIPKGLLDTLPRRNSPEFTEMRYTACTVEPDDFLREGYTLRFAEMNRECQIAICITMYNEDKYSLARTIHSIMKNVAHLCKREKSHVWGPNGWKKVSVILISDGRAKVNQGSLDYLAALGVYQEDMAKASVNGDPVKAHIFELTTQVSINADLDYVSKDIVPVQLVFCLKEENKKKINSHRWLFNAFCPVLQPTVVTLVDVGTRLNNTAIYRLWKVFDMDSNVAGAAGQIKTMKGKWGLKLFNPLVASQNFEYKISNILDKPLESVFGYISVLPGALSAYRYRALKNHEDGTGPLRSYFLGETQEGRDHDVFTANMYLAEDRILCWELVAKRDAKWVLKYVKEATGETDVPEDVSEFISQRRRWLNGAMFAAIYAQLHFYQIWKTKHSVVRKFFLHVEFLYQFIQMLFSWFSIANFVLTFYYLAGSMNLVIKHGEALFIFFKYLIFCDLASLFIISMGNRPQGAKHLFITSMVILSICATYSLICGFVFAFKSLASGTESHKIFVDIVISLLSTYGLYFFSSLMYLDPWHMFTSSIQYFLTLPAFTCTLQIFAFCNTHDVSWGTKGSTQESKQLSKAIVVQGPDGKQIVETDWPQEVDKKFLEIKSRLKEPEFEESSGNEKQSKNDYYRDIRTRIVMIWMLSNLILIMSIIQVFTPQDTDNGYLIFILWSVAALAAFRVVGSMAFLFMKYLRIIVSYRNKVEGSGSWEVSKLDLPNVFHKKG
T2 sequence (P23316 whole entry, stated change not applied): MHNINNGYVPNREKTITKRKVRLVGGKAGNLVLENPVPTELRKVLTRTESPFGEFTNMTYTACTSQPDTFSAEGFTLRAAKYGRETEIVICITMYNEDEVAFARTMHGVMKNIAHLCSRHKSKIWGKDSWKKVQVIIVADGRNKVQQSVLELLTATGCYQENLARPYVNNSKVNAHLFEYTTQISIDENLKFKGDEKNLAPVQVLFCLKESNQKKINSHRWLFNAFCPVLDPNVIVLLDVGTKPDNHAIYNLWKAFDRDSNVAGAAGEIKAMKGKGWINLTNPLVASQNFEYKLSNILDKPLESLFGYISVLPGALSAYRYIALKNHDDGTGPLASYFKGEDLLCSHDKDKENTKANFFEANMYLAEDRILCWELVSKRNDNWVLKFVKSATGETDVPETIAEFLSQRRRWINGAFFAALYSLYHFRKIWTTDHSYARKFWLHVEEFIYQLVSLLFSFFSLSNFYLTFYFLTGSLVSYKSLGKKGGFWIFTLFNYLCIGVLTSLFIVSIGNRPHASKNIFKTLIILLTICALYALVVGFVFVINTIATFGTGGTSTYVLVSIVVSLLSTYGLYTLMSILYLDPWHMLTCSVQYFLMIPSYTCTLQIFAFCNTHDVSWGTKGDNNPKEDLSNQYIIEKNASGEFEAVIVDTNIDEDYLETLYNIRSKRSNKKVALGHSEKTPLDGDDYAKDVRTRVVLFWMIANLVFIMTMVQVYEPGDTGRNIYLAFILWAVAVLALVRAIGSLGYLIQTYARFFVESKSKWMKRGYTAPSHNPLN

Compound | Relative activity Enzyme 2 [1] | Relative activity Enzyme 1 [2]
13-(3,4,5-Trimethoxybenzyl)-9-O-hexylberberrubine chloride [Compound No. 63] | 4 (Compounds having the inhibitory activity at 2-fold, 4-fold, 8-fold and 16-fold higher concentrations than that of polyoxin D were given the values of 4, 3, 2 and 1, respectively) | 2 (Compounds having the inhibitory activity at 2-fold, 4-fold, 8-fold and 16-fold higher concentrations than that of polyoxin D were given the values of 4, 3, 2 and 1, respectively)
13-(4-Trifluoromethoxybenzyl)-9-O-hexylberberrubine iodide [Compound No. 34] | 5 (A compound having the same inhibitory activity as that of polyoxin D at the same concentration was given the value 5) | 2 (Compounds having the inhibitory activity at 2-fold, 4-fold, 8-fold and 16-fold higher concentrations than that of polyoxin D were given the values of 4, 3, 2 and 1, respectively)
13-(3,4,5-trifluorobenzyl)-9-O-butylberberrubine chloride [Compound No. 59] | 5 (A compound having the same inhibitory activity as that of polyoxin D at the same concentration was given the value 5) | 3 (Compounds having the inhibitory activity at 2-fold, 4-fold, 8-fold and 16-fold higher concentrations than that of polyoxin D were given the values of 4, 3, 2 and 1, respectively)
13-(3,4,5-Trifluorobenzyl)-9-O-hexylberberrubine chloride [Compound No. 60] | 5 (A compound having the same inhibitory activity as that of polyoxin D at the same concentration was given the value 5) | 2 (Compounds having the inhibitory activity at 2-fold, 4-fold, 8-fold and 16-fold higher concentrations than that of polyoxin D were given the values of 4, 3, 2 and 1, respectively)
COc1ccc2c(Cc3ccc(C(F)(F)F)cc3)c3[n+](cc2c1OCc1ccc(C(C)(C)C)cc1)CCc1cc2c(cc1-3)OCO2.[Br-] [Compound No. 38, 13-(4-Trifluoromethylbenzyl)-9-O-(4-tert-butylbenzyl)berberrubine bromide] | 5 (A compound having the same inhibitory activity as that of polyoxin D at the same concentration was given the value 5) | 2 (Compounds having the inhibitory activity at 2-fold, 4-fold, 8-fold and 16-fold higher concentrations than that of polyoxin D were given the values of 4, 3, 2 and 1, respectively)
13-(4-Isopropylbenzyl)berberrubine [Compound No. 6] | 4 (Compounds having the inhibitory activity at 2-fold, 4-fold, 8-fold and 16-fold higher concentrations than that of polyoxin D were given the values of 4, 3, 2 and 1, respectively) | 2 (Compounds having the inhibitory activity at 2-fold, 4-fold, 8-fold and 16-fold higher concentrations than that of polyoxin D were given the values of 4, 3, 2 and 1, respectively)
13-(4-Trifluoromethylbenzyl)-9-O-hexylberberrubine iodide [Compound No. 37] | 5 (A compound having the same inhibitory activity as that of polyoxin D at the same concentration was given the value 5) | 2 (Compounds having the inhibitory activity at 2-fold, 4-fold, 8-fold and 16-fold higher concentrations than that of polyoxin D were given the values of 4, 3, 2 and 1, respectively)
13-(4-Trifluoromethylbenzyl)-9-O-butylberberrubine iodide [Compound No. 36] | 6 (compounds having the inhibitory activity at ½, ¼ and ⅛ lower concentrations than that of polyoxin D were given the values of 6, 7 and 8, respectively) | 3 (Compounds having the inhibitory activity at 2-fold, 4-fold, 8-fold and 16-fold higher concentrations than that of polyoxin D were given the values of 4, 3, 2 and 1, respectively)
13-(4-tert-Butylbenzyl)berberrubine [Compound No. 5] | 4 (Compounds having the inhibitory activity at 2-fold, 4-fold, 8-fold and 16-fold higher concentrations than that of polyoxin D were given the values of 4, 3, 2 and 1, respectively) | 2 (Compounds having the inhibitory activity at 2-fold, 4-fold, 8-fold and 16-fold higher concentrations than that of polyoxin D were given the values of 4, 3, 2 and 1, respectively)
13-(3,4,5-Trimethoxybenzyl)-9-O-hexylberberrubine iodide [Compound No. 31] | 4 (Compounds having the inhibitory activity at 2-fold, 4-fold, 8-fold and 16-fold higher concentrations than that of polyoxin D were given the values of 4, 3, 2 and 1, respectively) | 2 (Compounds having the inhibitory activity at 2-fold, 4-fold, 8-fold and 16-fold higher concentrations than that of polyoxin D were given the values of 4, 3, 2 and 1, respectively)
13-(3,4,5-Trifluorobenzyl)-9-O-hexylberberrubine iodide [Compound No. 28] | 5 (A compound having the same inhibitory activity as that of polyoxin D at the same concentration was given the value 5) | 2 (Compounds having the inhibitory activity at 2-fold, 4-fold, 8-fold and 16-fold higher concentrations than that of polyoxin D were given the values of 4, 3, 2 and 1, respectively)
